US6492405B2, “Nitric oxide donors and pharmaceutical compositions containing them” (Yissum Research Development Company of the Hebrew …, priority 1999, dated 2002)

Test system: vascular cGMP
Assay: vasorelaxant activity measured as increase in vascular cGMP in rat aorta after i.v. push, before and after 18 hr continuous i.v. infusion
Type: in vivo, male Sprague-Dawley rats
Details: for cGMP Post-infusion / cGMP Pre-infusion: rat aorta, i.v. push, nitroglycerin equimolar doses; for cGMP Post-infusion: after 18 hr continuous i.v. infusion of the same compound; for cGMP Pre-infusion: before 18 hr continuous i.v. infusion
Experimental: Representative for the new compounds, the vasorelaxant activities (measured as the ability of the tested drug to induce an increase in vascular cGMP) of the example compounds 1 to 6 were determined and compared to activity of nitroglycerin under the same experimental conditions following single and sustained exposure of rats to the compound.
For this purpose the compound to be tested was administered, in each case, to 8 male Sprague-Dawley rats (300-400 g) before and after an 18 hr continuous intravenous infusion of the compound. […] After drug administration (i.v. push), the rat was sacrificed, the aorta immediately removed and processed for cGMP measurement as has been described in detail by us. All of the tested new compounds were utilized in nitroglycerin equimolar doses, either before of after the “tolerance” induction period.
The following table summarizes the results obtained following administration of either nitroglycerin or the tested compounds before and after an 18 hr continuous exposure to the same compound: […]

Compound | cGMP Post-infusion [pmol/g tissue] | cGMP Pre-infusion [pmol/g tissue] | tolerance to the cGMP-inducing activity (after 18 hr continuous in vivo administration)
O=[N+]([O-])OCC1(CO[N+](=O)[O-])CCSSC1 [Compound 3, 1,1-Diemethanol-dinitrate-3,4-dithiane] | 174 ± 16 | 171 ± 14 | –
1,2-Dihydroxy-dinitrate-6,8-dithiane [Compound 6] | 179 ± 12 | 193 ± 17 | –
O=[N+]([O-])OCC(CO[N+](=O)[O-])O[N+](=O)[O-] [Nitroglycerin, nitroglycerin, reference compound] | 68 ± 9 | 153 ± 13 | developed early
1,1′-Bisthiomethyl-3,4-dihydroxy-cyclohexane-dinitrate ester [Compound 4] | 169 ± 13 | 149 ± 11 | –
O=[N+]([O-])OCCCCCC1CCSS1 (centres unmarked) [Compound 5, Thioctyl Alcohol Nitrate Ester] | 113 ± 11 | 123 ± 13 | –
